From ChEMBL document CHEMBL4017448, “Novel pyrazolo[1,5-a]pyridines as orally active EP1 receptor antagonists: Synthesis, structure-activity relationship studies, and biological evaluation” (Bioorg Med Chem, 2017)

Tests used:
[1] = biological target: T1, Prostaglandin E2 receptor EP1 subtype (Rattus norvegicus, UniProt P70597); assay: Antagonist activity at rat EP1 receptor expressed in African green monkey COS1 cells assessed as decrease in prostaglandin E2-induced increase in intracellular calcium level incubated for 90 mins measured for 60 secs by Fluo 4-AM dye based fluorescence assay; assay type: functional, cell-based
T1 sequence (P70597 whole entry): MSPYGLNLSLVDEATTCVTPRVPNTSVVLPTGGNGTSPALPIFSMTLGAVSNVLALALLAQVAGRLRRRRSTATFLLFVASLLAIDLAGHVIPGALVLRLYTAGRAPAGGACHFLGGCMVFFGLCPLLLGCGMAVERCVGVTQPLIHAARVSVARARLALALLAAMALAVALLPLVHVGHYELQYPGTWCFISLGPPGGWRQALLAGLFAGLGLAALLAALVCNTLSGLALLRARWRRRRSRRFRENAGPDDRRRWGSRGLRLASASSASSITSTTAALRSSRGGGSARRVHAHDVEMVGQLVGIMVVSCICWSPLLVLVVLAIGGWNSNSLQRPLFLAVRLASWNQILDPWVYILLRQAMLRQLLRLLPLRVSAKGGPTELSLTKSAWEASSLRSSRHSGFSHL

[2] = Half life in rat at 1 mg/kg, iv; assay type: ADME, organism-based; settings: in vivo
[3] = AUC (0 to 8 hrs) in rat at 1 mg/kg, po; assay type: ADME, organism-based; parameters: time < 8 hr, dose 1 mg/kg, route oral; settings: in vivo
[4] = Total clearance in rat at 1 mg/kg, iv; assay type: ADME, organism-based; settings: in vivo
[5] = Volume of distribution in rat at 1 mg/kg, iv; assay type: ADME, organism-based; settings: in vivo
[6] = Half life in rat at 1 mg/kg, po; assay type: ADME, organism-based; settings: in vivo
[7] = AUC (0 to 8 hrs) in rat at 1 mg/kg, iv; assay type: ADME, organism-based; parameters: dose 1 mg/kg, time < 8 hr, route intravenous; settings: in vivo
[8] = Oral bioavailability in rat at 1 mg/kg; assay type: ADME, organism-based; settings: in vivo
[9] = AUC (0 to infinity) in rat at 1 mg/kg, po; assay type: ADME, organism-based; parameters: dose 1 mg/kg, route oral, time infinity; settings: in vivo
[10] = AUC (0 to infinity) in rat at 1 mg/kg, iv; assay type: ADME, organism-based; parameters: dose 1 mg/kg, time infinity, route intravenous; settings: in vivo
Rattus norvegicus [11] = assay: Reduction in 17-PTP induced bladder contraction in Wistar rat assessed as change in intravesical pressure administered intraduodenal pretreated for 5 followed by 17-PTP challenge at every 30 mins interval for 245 mins; assay type: functional
Rattus norvegicus [12] = assay: Reduction in 17-PTP induced bladder contraction in Wistar rat assessed as change in intravesical pressure administered intravenously pretreated for 5 followed by 17-PTP challenge at every 30 mins interval for 245 mins; assay type: functional

Row | Structure (SMILES) | IC50 [1] | also measured
1 | Cc1cc(C(=O)O)nn1Cc1ccc(Cl)c2cc(-c3ccccc3)nn12 | 2.6 µM | –
2 | COc1ccccc1-c1cc2cc(Cl)cc(Cn3nc(C(=O)O)cc3C)n2n1 | 0.84 µM | –
3 | CCc1cc(C(=O)O)nn1Cc1cc(Cl)cc2cc(-c3ccccc3)nn12 | 0.3 µM | –
4 | COc1ccc(Cn2nc(C(=O)O)cc2C)n2nc(-c3ccccc3)cc12 | 1.1 µM | –
5 | COc1cc(Cn2nc(C(=O)O)cc2C)n2nc(-c3ccccc3)cc2c1 | 9.6 µM | –
6 | Cc1cc(C(=O)O)nn1Cc1cc(Cl)cc2cc(C3CCCC3)nn12 | 0.41 µM | –
7 | Cc1cc(Cn2nc(C(=O)O)cc2C)n2nc(-c3ccccc3)cc2c1 | 0.45 µM | –
8 | Cc1cc(C(=O)O)nn1Cc1cc(Cl)cc2cc(-c3ccc(Cl)cc3)nn12 | 0.29 µM | –
9 | CCCC/C=C/c1cc(Cn2nc(C(=O)O)cc2C)n2nc(-c3ccccc3)cc2c1 | 1.5 µM | –
10 | COc1ccc(-c2cc3cc(Cl)cc(Cn4nc(C(=O)O)cc4C)n3n2)cc1 | 0.41 µM | –
11 | CC(C)Cc1cc(C(=O)O)nn1Cc1cc(Cl)cc2cc(-c3ccccc3)nn12 | 2 µM | –
12 | Cc1cc(C(=O)O)nn1Cc1cc(Cl)cc2cc(C(C)(C)C)nn12 | 2.1 µM | –
13 | C=Cc1cc(Cn2nc(C(=O)O)cc2C)n2nc(-c3ccccc3)cc2c1 | 0.36 µM | –
14 | Cc1cc(C(=O)O)nn1Cc1cc(C(F)(F)F)cc2cc(-c3ccccc3)nn12 | 0.3 µM | –
15 | CC(C)c1cc(C(=O)O)nn1Cc1cc(Cl)cc2cc(-c3ccccc3)nn12 | 1.2 µM | –
16 | Cc1cc(C(=O)O)nn1Cc1cc(Cl)cc2cc(CC(C)C)nn12 | 1.4 µM | –
17 | Cc1cc(C(=O)O)nn1Cc1cc(C#N)cc2cc(-c3ccccc3)nn12 | 1 µM | –
18 | CCCCc1cc2cc(Cl)cc(Cn3nc(C(=O)O)cc3C)n2n1 | 1.9 µM | –
19 | COc1ccc2cc(-c3ccccc3)nn2c1Cn1nc(C(=O)O)cc1C | 1.5 µM | –
20 | Cc1cc(C(=O)O)nn1Cc1c(Cl)ccc2cc(-c3ccccc3)nn12 | 0.54 µM | –
21 | CC(=O)c1cc(Cn2nc(C(=O)O)cc2C)n2nc(-c3ccccc3)cc2c1 | 0.6 µM | –

Compounds with a lower IC50 [1], results first:

Row | IC50 [1] | Structure (SMILES) | also measured
22 | 0.22 µM | Cc1cc(C(=O)O)nn1Cc1cc(Cl)cc2cc(-c3ccccc3Cl)nn12 | –
23 | 0.19 µM | O=C(O)c1ccn(Cc2cc(Cl)cc3cc(-c4ccccc4)nn23)c1 | –
24 | 0.18 µM | Cc1cc(C(=O)O)nn1Cc1cc(Cl)cc2cc(C3CC3)nn12 | –
25 | 0.15 µM | Cc1cc(C(=O)O)nn1Cc1cc(Cl)cc2cc(-c3cccc(Cl)c3)nn12 | –
26 | 0.12 µM | Cc1cc(C(=O)O)nn1Cc1cccc2cc(-c3ccccc3)nn12 | –
27 | 0.11 µM | COc1cccc(-c2cc3cc(Cl)cc(Cn4nc(C(=O)O)cc4C)n3n2)c1 | –
28 | 0.097 µM | CCCc1cc(C(=O)O)nn1Cc1cc(Cl)cc2cc(-c3ccccc3)nn12 | –
29 | 0.089 µM | O=C(O)c1ccn(Cc2cc(Cl)cc3cc(-c4ccccc4)nn23)n1 | –
30 | 0.071 µM | Cc1cc(C(=O)O)nn1Cc1cc(Cl)cc2cc(C3CCCCC3)nn12 | –
31 | 0.022 µM | Cc1cc(C(=O)O)nn1Cc1cc(Cl)cc2cc(-c3ccccc3)oc12 | –
32 | 0.0094 µM | Cc1cc(C(=O)O)nn1Cc1cc(Cl)cc2cc(-c3ccccc3)nn12 | half-life [2]: 4.99 h; AUC(0-t) at 8 h [3]: 4870 ng·h/mL; clearance [4]: 2.59 mL/min/kg; Vd [5]: 0.908 L/kg; half-life [6]: 4.28 h; AUC(0-t) at 8 h [7]: 5010 ng·h/mL; bioavailability [8]: 81%; AUC(0-inf) [9]: 6030 ng·h/mL; AUC(0-inf) [10]: 7470 ng·h/mL; Activity (Rattus norvegicus [11]): Dose-dependent effect; Activity (Rattus norvegicus [12]): Dose-dependent effect
